Reference: article PMC2652632 (Biochemistry, 2008)
“Also recorded” adds a separate entry of the source. Each block holds one molecule with its values, some of them ahead of it.

Assays:
IDE-WT [1] = molecular target: T1, IDE-WT (Homo sapiens, UniProt P14735); assay: Specific activity of IDE-WT with substrate V; assay type: biochemical; settings: 0.5 μM fluorogenic substrate V
IDE-CF [2] = molecular target: T2, IDE-CF (Homo sapiens, UniProt P14735, C110L/C171S/C178A/C257V/C414L/C573N/C590S/C789S/C812A/C819A/C904S/C966N/C974A); assay: Specific activity of IDE-CF with substrate V; assay type: biochemical; settings: 0.5 μM fluorogenic substrate V
T2 sequence (P14735 whole entry C110L/C171S/C178A/C257V/C414L/C573N/C590S/C789S/C812A/C819A/C904S/C966N/C974A): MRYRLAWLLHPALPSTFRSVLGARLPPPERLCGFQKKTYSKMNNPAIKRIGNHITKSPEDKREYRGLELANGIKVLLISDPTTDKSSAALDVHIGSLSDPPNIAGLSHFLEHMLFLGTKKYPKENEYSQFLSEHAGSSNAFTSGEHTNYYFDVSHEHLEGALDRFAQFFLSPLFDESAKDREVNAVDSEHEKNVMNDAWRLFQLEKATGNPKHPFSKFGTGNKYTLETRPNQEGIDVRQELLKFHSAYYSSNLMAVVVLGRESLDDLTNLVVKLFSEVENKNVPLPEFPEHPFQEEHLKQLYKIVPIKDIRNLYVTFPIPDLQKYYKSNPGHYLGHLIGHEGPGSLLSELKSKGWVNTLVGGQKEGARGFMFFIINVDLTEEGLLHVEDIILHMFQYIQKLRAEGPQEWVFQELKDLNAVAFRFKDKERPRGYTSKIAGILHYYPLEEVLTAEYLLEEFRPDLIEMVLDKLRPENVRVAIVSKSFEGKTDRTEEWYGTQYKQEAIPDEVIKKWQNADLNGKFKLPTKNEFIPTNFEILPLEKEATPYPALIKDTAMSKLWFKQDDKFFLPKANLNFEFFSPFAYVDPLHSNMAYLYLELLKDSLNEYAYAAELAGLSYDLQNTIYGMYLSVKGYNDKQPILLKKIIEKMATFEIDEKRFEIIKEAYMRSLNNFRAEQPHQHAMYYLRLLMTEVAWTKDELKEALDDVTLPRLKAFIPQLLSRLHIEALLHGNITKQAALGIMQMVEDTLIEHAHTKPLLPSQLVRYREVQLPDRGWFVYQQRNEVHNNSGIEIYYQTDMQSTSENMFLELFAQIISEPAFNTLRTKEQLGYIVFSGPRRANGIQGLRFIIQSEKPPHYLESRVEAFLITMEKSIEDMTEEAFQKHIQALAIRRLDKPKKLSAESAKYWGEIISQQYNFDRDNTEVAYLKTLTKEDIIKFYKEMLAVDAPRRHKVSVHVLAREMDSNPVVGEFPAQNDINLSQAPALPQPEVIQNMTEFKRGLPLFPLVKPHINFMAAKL

IDE [3] = settings: ref 16 (b4: ref 16, 17); cited from earlier work
IDE-WT [4] = molecular target: T1, IDE-WT; assay: Sensitivity of IDE-WT to NEM, GSNO and H2O2; assay type: biochemical; settings: for inactivation of IDE by NEM / H2O2 / GSNO (in words): substrates mimicking both Aβ and bradykinin
IDE-CF-A819C = assay: Sensitivity of IDE-CF-A819C to NEM, GSNO and H2O2; assay type: biochemical, human; settings: for sensitivity to GSNO / H2O2 relative to IDE-WT (in words): IDE-CF-A819C compared to IDE-WT; for NEM sensitivity (in words): IDE-CF-A819C
IDE-CF-4 = assay: Sensitivity of IDE-CF-4 to NEM, GSNO and H2O2; assay type: biochemical, human; settings: for inhibition by GSNO / H2O2 (in words): IDE-CF-4, substrate V or FAβB
IDE-CF-123 = assay: Sensitivity of IDE-CF-123 to NEM, GSNO and H2O2; assay type: biochemical, human; settings: for inhibition by GSNO / H2O2 (in words): IDE-CF-123, substrate V or FAβB; for sensitivity to GSNO / H2O2 relative to IDE-WT (in words): IDE-CF-123 compared to IDE-WT
IDE [5] = settings: cited from earlier work
IDE-CF [6] = molecular target: T2, IDE-CF; assay: Sensitivity of cysteine-free IDE-CF to NEM, GSNO and H2O2; assay type: biochemical
rat IDE = settings: cited from earlier work
IDE M1 = assay: NEM sensitivity of IDE mutant M1; assay type: biochemical, human; settings: IDE M1 (C904S/C966N), 0.2 and 1 mM NEM, 1 h, substrate V
IDE M3 = assay: NEM sensitivity of IDE mutant M3; assay type: biochemical, human; settings: IDE M3 (C812A/C819A/C904S/C966N), 0.2 and 1 mM NEM, 1 h, substrate V
IDE-CF-A812C = assay: NEM sensitivity of IDE-CF-A812C; assay type: biochemical, human; settings: fully purified, 0.15, 0.6 and 2.5 mM NEM, 1 h, substrate V
IDE-WT-C819A = assay: NEM sensitivity of IDE-WT-C819A; assay type: biochemical, human; settings: 0–1 mM NEM, substrate V, compared to IDE-CF4 and IDE-WT
IDE M2 = assay: NEM sensitivity of IDE mutant M2; assay type: biochemical, human; settings: IDE M2 (C789S/C904S/C966N), 0.2 and 1 mM NEM, 1 h, substrate V
IDE M4 = assay: NEM sensitivity of IDE mutant M4; assay type: biochemical, human; settings: IDE M4 (C789S/C904S/C966N/C974A), 0.2 and 1 mM NEM, 1 h, substrate V
IDE M5 = assay: NEM sensitivity of IDE mutant M5; assay type: biochemical, human; settings: IDE M5 (C789S/C819A/C904S/C966N), 0.2 and 1 mM NEM, 1 h, substrate V
812C mutant of IDE = settings: single 812C mutant, only Ni-NTA purified; cited from earlier work
NEP = settings: cited from earlier work
human IDE (IDE-CF) [7] = molecular target: T3, human IDE (IDE-CF) (Homo sapiens, UniProt P14735, C110L/C171S/C178A/C257V/C414L/C573N/C590S/C789S/C812A/C819A/C904S/C966N/C974A); assay: Mass spectrometry analysis of kinins degradation by IDE-CF; assay type: biochemical; settings: for major cleavage site: 50 mM potassium phosphate pH 7.3, MALDI-TOF and MS-MS
T3 sequence (P14735 whole entry C110L/C171S/C178A/C257V/C414L/C573N/C590S/C789S/C812A/C819A/C904S/C966N/C974A): as above

human IDE (IDE-CF) [8] = molecular target: T3, human IDE (IDE-CF); assay: Kinetic analysis of kinin degradation by IDE-CF; assay type: biochemical; settings: for kcat for degradation by IDE: IDE-CF, competition with 0.5 μM substrate V, 50 mM potassium phosphate pH 7.3, 37 °C
ACE = settings: cited from earlier work
IDE [9] = settings: insulin; literature value, reference not given; cited from earlier work
IDE [10] = assay: Degradation of insulin and short substrates by IDE; assay type: biochemical; settings: insulin 100 nM vs kinins 4–7 mM

T1 sequence (P14735 whole entry): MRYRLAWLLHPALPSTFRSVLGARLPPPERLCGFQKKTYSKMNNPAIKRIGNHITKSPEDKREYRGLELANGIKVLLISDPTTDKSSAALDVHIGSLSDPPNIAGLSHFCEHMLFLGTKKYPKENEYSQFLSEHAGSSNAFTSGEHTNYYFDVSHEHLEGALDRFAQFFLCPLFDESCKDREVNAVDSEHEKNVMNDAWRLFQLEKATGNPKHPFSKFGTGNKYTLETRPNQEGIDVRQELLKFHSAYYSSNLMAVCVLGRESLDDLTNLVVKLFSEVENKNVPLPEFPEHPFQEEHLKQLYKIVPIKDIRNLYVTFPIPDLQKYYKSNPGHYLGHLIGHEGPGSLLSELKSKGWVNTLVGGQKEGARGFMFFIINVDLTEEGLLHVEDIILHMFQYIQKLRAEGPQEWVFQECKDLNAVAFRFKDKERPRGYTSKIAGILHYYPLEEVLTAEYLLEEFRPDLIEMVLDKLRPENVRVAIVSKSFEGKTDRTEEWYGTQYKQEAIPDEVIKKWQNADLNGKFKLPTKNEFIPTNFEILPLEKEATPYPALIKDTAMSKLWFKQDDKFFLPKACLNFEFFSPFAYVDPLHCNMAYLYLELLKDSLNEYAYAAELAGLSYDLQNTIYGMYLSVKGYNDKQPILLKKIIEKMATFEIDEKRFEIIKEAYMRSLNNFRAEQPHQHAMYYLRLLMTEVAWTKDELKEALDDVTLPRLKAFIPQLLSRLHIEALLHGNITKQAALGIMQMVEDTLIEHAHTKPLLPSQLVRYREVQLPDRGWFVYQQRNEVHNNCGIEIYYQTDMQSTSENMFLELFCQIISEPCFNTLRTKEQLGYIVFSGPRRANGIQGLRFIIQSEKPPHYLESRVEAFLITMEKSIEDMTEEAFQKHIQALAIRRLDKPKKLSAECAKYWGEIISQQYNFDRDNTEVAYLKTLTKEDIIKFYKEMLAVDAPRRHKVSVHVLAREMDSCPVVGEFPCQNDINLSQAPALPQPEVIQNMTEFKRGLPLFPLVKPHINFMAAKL

Molecule: 7-methoxycoumarin-4-yl-acetyl-NPPGFSAFK-2,4-dinitrophenyl [substrate V]
specific activity (IDE-WT [1]): 3.0 ± 0.4 min⁻¹
specific activity (IDE-CF [2]): 4.5 ± 0.1 min⁻¹

Molecule: Nc1ncnc2c1ncn2[C@@H]1O[C@H](COP(=O)(O)OP(=O)(O)OP(=O)(O)O)[C@@H](O)[C@H]1O [ATP]
activation of IDE (in words) (IDE [3]): can activate IDE

Molecule: N[C@@H](CCC(=O)N[C@@H](CSN=O)C(=O)NCC(=O)O)C(=O)O [GSNO, S-nitroso-glutathione]
inactivation of IDE by NEM / H2O2 / GSNO (in words) (IDE-WT [4]): potently inactivate the catalytic activity of IDE
sensitivity to GSNO / H2O2 relative to IDE-WT (in words) (IDE-CF-A819C): more sensitive
inhibition by GSNO / H2O2 (in words) (IDE-CF-4): relatively resistant
inhibition by GSNO / H2O2 (in words) (IDE-CF-123): inactivated
sensitivity to GSNO / H2O2 relative to IDE-WT (in words) (IDE-CF-123): more sensitive

inhibition by GSNO / H2O2 / NEM (in words) (IDE-CF [6]; cysteine-free IDE-CF, substrate V or FAβB, 1 mM reagent): insensitive to the inhibition
Molecule: OO [H2O2, hydrogen peroxide]
inactivation of IDE by NEM / H2O2 / GSNO (in words) (IDE-WT [4]): potently inactivate the catalytic activity of IDE
sensitivity to GSNO / H2O2 relative to IDE-WT (in words) (IDE-CF-A819C): more sensitive
inhibition by sulfhydryl-directed reactions (in words) (IDE [5]): sensitive to inhibition
inhibition by GSNO / H2O2 (in words) (IDE-CF-4): relatively resistant
inhibition by GSNO / H2O2 (in words) (IDE-CF-123): inactivated
sensitivity to GSNO / H2O2 relative to IDE-WT (in words) (IDE-CF-123): more sensitive
inactivation of rat IDE (in words) (rat IDE): inactivate rat IDE

Molecule: CCN1C(=O)C=CC1=O [NEM, N-ethyl-maleimide]
NEM sensitivity (in words) (IDE M1): susceptibility to NEM
NEM sensitivity (in words) (IDE M3): partial resistance
loss of activity (IDE-WT [4]; IDE-WT, 1 mM NEM, 1 h, 25 °C, pH 7.2, 0.5 μM substrate V, control = buffer only): greater than 95%
NEM sensitivity (in words) (IDE-WT [4]; IDE-WT, 0.2–1 mM NEM, 1 h, substrate V): highly sensitive to inhibition by NEM
inactivation of IDE by NEM / H2O2 / GSNO (in words) (IDE-WT [4]): potently inactivate the catalytic activity of IDE
NEM sensitivity (in words) (IDE-CF-A812C): does not induce a similar inhibition effect as Cys 819
NEM sensitivity (in words) (IDE-WT-C819A): less sensitive to NEM inactivation
NEM sensitivity (in words) (IDE-CF-A819C; fully purified, 0.15, 0.6 and 2.5 mM NEM, 1 h, substrate V): only IDE-CF-A819C is highly sensitive to the NEM inactivation
NEM sensitivity (in words) (IDE-CF-A819C; partially purified (preliminary)): sensitivity to NEM
mode of inhibition (IDE [5]; S-alkylation of IDE by NEM): non-competitive
inhibition by sulfhydryl-directed reactions (in words) (IDE [5]): sensitive to inhibition
NEM sensitivity (in words) (IDE M2): susceptibility to NEM
NEM sensitivity (in words) (IDE M4): susceptibility to NEM
NEM sensitivity (in words) (IDE-CF-4; IDE-CF-4, 0.2 and 1 mM NEM, 1 h, substrate V, partially purified): significantly reduced sensitivity
NEM sensitivity relative to IDE-WT (in words) (IDE-CF-123; IDE-CF-123, 0.2 and 1 mM NEM, 1 h, substrate V): more sensitive
NEM sensitivity (in words) (IDE-CF-123; IDE-CF-123, 0.2 and 1 mM NEM, 1 h, substrate V, partially purified): highly sensitive to NEM
NEM sensitivity (in words) (IDE-CF [6]; IDE-CF, 0.2–1 mM NEM, 1 h, substrate V): relatively resistant to the inactivation by NEM
NEM sensitivity (in words) (IDE M5): partial resistance
susceptibility to alkylation (in words) (812C mutant of IDE): susceptible to alkylation

minor cleavage site (human IDE (IDE-CF) [7]; 30 min incubation, MALDI-TOF peak m/z 653.32, not confirmed by MS-MS): between residues Gly^4 and Phe^5
hydrolysis by IDE (in words) (human IDE (IDE-CF) [7]; purified recombinant human IDE, 30-minute incubation, MALDI-TOF): hydrolyzed after 30-minute incubation
kcat for degradation by IDE (human IDE (IDE-CF) [8]): around 2,000 sec^−1
affinity of IDE for kinins (in words) (human IDE (IDE-CF) [8]; inferred from Km): low affinity
Molecule: bradykinin: vasoactive nonapeptide hormone of the family of kinins, purchased from AnaSpec (RPPGFSPFR)
activation of IDE (in words) (IDE [3]): activator of IDE
cleavage of C-terminal di-peptide (NEP): Same cleavage of the C-terminal di-peptide
major cleavage site (human IDE (IDE-CF) [7]; 30 min incubation): at the Pro/Phe site; also recorded: between residues Pro^7 and Phe^8
cleavage of C-terminal di-peptide (ACE): Same cleavage of the C-terminal di-peptide

Molecule: insulin: large peptide substrate of IDE
Km (IDE [9]): 0.1 µM
Km of insulin relative to kinins (IDE [10]): about five orders of magnitude lower

kcat for degradation by IDE (human IDE (IDE-CF) [8]): around 2,000 sec^−1
Molecule: kallidin
major cleavage site (human IDE (IDE-CF) [7]; 30 min incubation): at the Pro/Phe site; also recorded: between Pro^8 and Phe^9
